Data published in PMC12153776, “Synthesis and Preliminary Cytotoxicity Evaluation of 3-Lup-20(29)-Ene-3β,28-Diol Glycoconjugates Containing a Succinic Linker and a 1,2,3-Triazole Ring” (Cancers, 2025).

Key:
[1] = system: HCT 116 (colorectal carcinoma cell line); assay: cells; assay type: cell-based, human; details: for IC50: Homo sapiens, MTT
Protocol: (§1) For biological studies three different cell lines were used: the NHDF-Neo cell line (Lonza, Poland), the HCT-116 cell line (American Type Culture Collection, ATCC, Manassas, VA, USA), and the MCF-7 cell line (purchased by the Maria Sklodowska-Curie Memorial Cancer Center and Institute of Oncology, Gliwice, Poland and gifted for our research). Cells were cultured in 96-well plates (Sarstedt, Nümbrecht, Germany) using RPMI 1640 or DMEM/F12 media (100 µL per well) supplemented with fetal bovine serum (FBS, EURx, Gdańsk, Poland), and with Antibiotic–Antimycotic Solution (Avantor, Gliwice, Poland). […] Stock solutions of the tested compounds were prepared in DMSO and stored under appropriate conditions. Immediately prior to the experiment, these solutions were diluted to the desired concentrations using a growth medium. In no dilution was the DMSO content higher than 1% v/v. The resulting solutions were then used to treat cells (100 µL per well). […] In parallel, the influence of copper ions on cellular proliferation was investigated. In this case, the procedure was analogous to the previously described one, with the difference that glycoconjugates were added in the culture medium with the addition of CuCl2. […] ACROS Organics) was applied following the manufacturer’s protocol. Absorbance of the formazan, formed during the test and dissolved in 100 µL of DMSO, was measured spectrophotometrically at 570 nm using a plate reader (Epoch, Bio-Tek, Winooski, VT, USA). The measured absorbance was analyzed to assess proliferation, where tested samples were compared with the untreated controls (100%). The results from MTT were presented as the mean of three experiments (biological replicates). For each experimental condition within a replicate, four technical repetitions were performed. Technical repetitions were averaged to obtain a single value per replicate. Statistical analyses were conducted using means of the biological replicates. The percentage of viable cells and the standard deviation (SD) were calculated in Excel (Microsoft Office 365, A3 for faculty), using the STDEV.S formula, which determines the standard deviation for a sample set. […] The results are expressed as the average value ± standard deviation (SD). To evaluate statistical significance, two-way analysis of variance (ANOVA) with replication was performed to assess the effects of compound type and concentration on cell proliferation. […] All statistical tests were performed in Excel. […] Two cancer cell lines were chosen for the study: HCT 116 (colorectal carcinoma cell line) and MCF-7 (human breast adenocarcinoma cell line). This selection was not random, as in both types of cancer cell lines overexpression of glucose and galactose transporters is observed. To determine if glycoconjugation enhanced the selectivity of the betulin derivatives, cytotoxicity tests on Normal Human Dermal Fibroblast-Neonatal cells (NHDF-Neo) were also conducted. […] The incubation time for individual cell lines varied from 24 to 72 h, due to differences in the doubling time of these cell lines.

[2] = system: MCF-7 (human breast adenocarcinoma cell line); assay: MTT cytotoxicity assay, MCF-7 cells; assay type: cell-based; details: for IC50: Homo sapiens, MCF7, 72 h, MTT, incubation 72 h
Protocol: as §1, with “Poland). Cells were seeded and incubated for 24 h prior to treatment:” for “Poland).”, “proliferation. When significant main effects were observed (p < 0.05), pairwise comparisons between betulin (BN) and each analogue at corresponding concentrations were conducted using two-tailed unpaired t-tests.” for “proliferation.”, “conducted. The selection of this healthy cell line, so atypical in relation to the cancer cells tested, was based on the desire to compare the selectivity index determined for the currently obtained glycoconjugates with the results obtained for the betulin derivatives we described earlier and draw preliminary conclusions on structure-selectivity relationships.” for “conducted.”

[3] = system: Normal Human Dermal Fibroblast-Neonatal cells (NHDF-Neo); assay: MTT cytotoxicity assay, healthy NHDF-Neo cells; assay type: cell-based; details: 24 h, incubation 24 h
Protocol: as §1

[4] = HCT-116, 24 h, incubation 24 h, no copper added
[5] = HCT-116, 48 h, incubation 48 h, addition of CuCl2 at 20 µM
[6] = HCT-116, 48 h, incubation 48 h, no copper added

Row | Compound | IC50 [1, 4] [µM] | IC50 [1, 5] [µM] | IC50 [1, 6] [µM] | IC50 ([2]; addition of CuCl2 at 20 µM) [µM] | IC50 ([2]; no copper added) [µM] | SI MCF-7 (ratio of IC50 of NHDF-Neo to IC50 of cancer cells) ([2]; addition of CuCl2 at 20 µM) | SI MCF-7 (ratio of IC50 of NHDF-Neo to IC50 of cancer cells) ([2]; no copper added) | IC50 ([3]; addition of CuCl2 at 20 µM) [µM] | IC50 ([3]; no copper added) [µM] | SI HCT 116 (ratio of IC50 of NHDF-Neo to IC50 of cancer cells) ([1]; no copper added) | SI HCT 116 (ratio of IC50 of NHDF-Neo to IC50 of cancer cells) ([1]; addition of CuCl2 at 20 µM) | IC50 ([1]; HCT-116, 24 h, incubation 24 h, addition of CuCl2 at 20 µM) [µM]
1 | C=C(C)[C@@H]1CC[C@]2(COC(=O)CCC(=O)OCc3cn([C@@H]4O[C@H](COC(C)=O)[C@@H](OC(C)=O)[C@H](OC(C)=O)[C@H]4OC(C)=O)nn3)CC[C@]3(C)C(CCC4[C@@]5(C)CC[C@H](OC(C)=O)C(C)(C)C5CC[C@]43C)C12 (stereo partly shown) [5a] | > 200 | > 200 | > 200 | 109 ± 5.85 | 163 ± 7.65 | >1.8 | >1.2 | > 200 | > 200 |  |  | 
2 | C=C(C)[C@@H]1CC[C@]2(COC(=O)CCC(=O)OCc3cn(CCCO[C@@H]4O[C@H](COC(C)=O)[C@@H](OC(C)=O)[C@H](OC(C)=O)[C@H]4OC(C)=O)nn3)CC[C@]3(C)C(CCC4[C@@]5(C)CC[C@H](O)C(C)(C)C5CC[C@]43C)C12 (stereo partly shown) [7d] | > 200 | 60.4 ± 6.95 | 131 ± 8.76 | 147 ± 2.32 | 165 ± 8.32 | >1.4 | >1.2 | > 200 | > 200 | >1.5 |  | 
3 | C=C(C)[C@@H]1CC[C@]2(COC(=O)CCC(=O)OCc3cn([C@@H]4O[C@H](COCc5ccccc5)[C@@H](OCc5ccccc5)[C@H](OCc5ccccc5)[C@H]4OCc4ccccc4)nn3)CC[C@]3(C)C(CCC4[C@@]5(C)CC[C@H](OC(C)=O)C(C)(C)C5CC[C@]43C)C12 (stereo partly shown) [5b] | > 200 |  | > 200 |  | 168 ± 11.7 |  | >1.2 |  | > 200 |  |  | 
4 | C=C(C)[C@@H]1CC[C@]2(COC(=O)CCC(=O)OCc3cn(C[C@H]4O[C@@H](OC(C)=O)[C@H](OC(C)=O)[C@@H](OC(C)=O)[C@H]4OC(C)=O)nn3)CC[C@]3(C)C(CCC4[C@@]5(C)CC[C@H](OC(C)=O)C(C)(C)C5CC[C@]43C)C12 (stereo partly shown) [8a] | > 200 | > 200 | > 200 | 88.3 ± 3.31 | 153 ± 1.98 | >2.3 | >1.3 | > 200 | > 200 |  |  | 
5 | COc1cccc2c1C(=O)c1c(O)c3c(c(O)c1C2=O)C[C@@](O)(C(=O)CO)C[C@@H]3O[C@H]1C[C@H](N)[C@H](O)[C@H](C)O1 [Doxorubicin, doxorubicin, reference compound] | 13.2 ± 0.58 |  | 1.89 ± 0.19 |  | 0.29 ± 0.04 |  |  |  |  |  |  | 
6 | C=C(C)[C@@H]1CC[C@]2(COC(=O)CCC(=O)OCc3cn([C@@H]4O[C@H](COC(C)=O)[C@H](OC(C)=O)[C@H](OC(C)=O)[C@H]4OC(C)=O)nn3)CC[C@]3(C)C(CCC4[C@@]5(C)CC[C@H](OC(C)=O)C(C)(C)C5CC[C@]43C)C12 (stereo partly shown) [6a] | > 200 | > 200 | > 200 | 59.8 ± 1.85 | 123 ± 6.84 |  | >1.6 | > 200 | > 200 |  |  | 
7 | C=C(C)[C@@H]1CC[C@]2(COC(=O)CCC(=O)OCc3cn(CCO[C@@H]4O[C@H](COC(C)=O)[C@@H](OC(C)=O)[C@H](OC(C)=O)[C@H]4OC(C)=O)nn3)CC[C@]3(C)C(CCC4[C@@]5(C)CC[C@H](O)C(C)(C)C5CC[C@]43C)C12 (stereo partly shown) [7c] | > 200 | > 200 | > 200 | 118 ± 1.42 | 135 ± 7.92 | >1.7 | >1.5 | > 200 | > 200 |  |  | 
8 | C=C(C)[C@@H]1CC[C@]2(COC(=O)CCC(=O)OCc3cn([C@@H]4O[C@H](COC(C)=O)[C@@H](OC(C)=O)[C@H](OC(C)=O)[C@H]4OC(C)=O)nn3)CC[C@]3(C)C(CCC4[C@@]5(C)CC[C@H](O)C(C)(C)C5CC[C@]43C)C12 (stereo partly shown) [5c] | > 200 | > 200 | > 200 | 70.7 ± 5.44 | 128 ± 1.35 | >2.8 | >1.6 | > 200 | > 200 |  |  | 
9 | C=C(C)[C@@H]1CC[C@]2(COC(=O)CCC(=O)OCc3cn(CCCO[C@@H]4O[C@H](COC(C)=O)[C@@H](OC(C)=O)[C@H](OC(C)=O)[C@H]4OC(C)=O)nn3)CC[C@]3(C)C(CCC4[C@@]5(C)CC[C@H](OC(C)=O)C(C)(C)C5CC[C@]43C)C12 (stereo partly shown) [7b] | > 200 | 112.5 ± 0.57 | > 200 | 124 ± 1.64 | 152 ± 2.91 | >1.6 | >1.3 | > 200 | > 200 |  | >1.8 | 
10 | C=C(C)[C@@H]1CC[C@]2(COC(=O)CCC(=O)OCc3cn(CCO)nn3)CC[C@]3(C)C(CCC4[C@@]5(C)CC[C@H](OC(C)=O)C(C)(C)C5CC[C@]43C)C12 (stereo partly shown) [9a] | > 200 | > 200 | > 200 | 139 ± 6.21 | 148 ± 8.71 |  | >1.4 | > 200 | > 200 |  |  | > 200
11 | C=C(C)[C@@H]1CC[C@]2(COC(=O)CCC(=O)OCc3cn(CCO[C@@H]4O[C@H](COC(C)=O)[C@@H](OC(C)=O)[C@H](OC(C)=O)[C@H]4OC(C)=O)nn3)CC[C@]3(C)C(CCC4[C@@]5(C)CC[C@H](OC(C)=O)C(C)(C)C5CC[C@]43C)C12 (stereo partly shown) [7a] | > 200 | 150 ± 8.01 | > 200 | 135 ± 10.2 | 144 ± 4.7 | >1.5 | >1.4 | > 200 | > 200 |  | >1.3 | 
